A short description of the data set: solvent given as SMILES.

We go through 47 compounds from the Deep4Chem optical property database.

Structures are written as SMILES.

`CN(C)c1ccc(C2=[N+]3C(=Nc4c(-c5ccccc5)cc(-c5ccc(N(C)C)cc5)n4[B-]3(F)F)C(c3ccccc3)=C2)cc1` had an absorption maximum (in ClC(Cl)Cl) of 799 nm.

As to `Cc1cc(C2=C(c3cc(C)sc3C)S(=O)(=O)c3ccccc32)c(C)s1`, the absorption maximum (in C1CCOC1) was determined as 349 nm.

As to `CC(C)(C)c1ccc2c(c1)c1cc(C(C)(C)C)ccc1n2-c1ccc(-c2ccc3c(c2)C2(c4cc(-c5ccc(-n6c7ccc(C(C)(C)C)cc7c7cc(C(C)(C)C)ccc76)cc5)ccc4-3)c3ccccc3S(=O)(=O)c3ccccc32)cc1`, the absorption maximum (in ClCCl) came out at 353 nm.

Take `F[B-]1(F)n2cccc2C(c2ccc(-c3c4ccccc4c(-c4ccccc4)c4ccccc34)cc2)=C2C=CC=[N+]21`: the absorption maximum reads like this: (in CC#N) 498 nm; (in CCCCCC) 501 nm; (in CCO) 500 nm; (in CN(C)C=O) 502 nm; (in Cc1ccccc1) 505 nm; (in ClCCl) 502 nm.

On to `CC1(C)CC(/C=C/c2ccc(-n3c4ccccc4c4ccccc43)cc2)=CC(=C(C#N)C#N)C1`, for which the absorption maximum runs as follows: (in C1CCOC1) 408 nm; (in CC#N) 405 nm; (in CCO) 414 nm; (in CCOC(C)=O) 407 nm; (in ClCCl) 410 nm; (in c1ccccc1) 422 nm.

Consider `CCN(CC)c1ccc(-c2ccc(-c3nc4ccccc4c(=O)[nH]3)s2)cc1`, for which the absorption maximum (in CC#N) stood at 404 nm and the absorption maximum (in Cc1ccccc1) worked out at 410 nm.

Compound `O=C1c2cc3ccccc3cc2C2=Nc3ccc4ccccc4[n+]3[B-](F)(F)N12` had an absorption maximum (in ClCCl) of 419 nm.

For the compound `CCOC(=O)c1c(C(=O)OC)c(-c2cc3cc(OC)ccc3oc2=O)nn1-c1ccccc1`, the absorption maximum (in ClCCl) turned out to be 351 nm.

For the setting “in O”, `O=C(O)c1cccc2c(=O)c3ccccc3[nH]c12` had an absorption maximum of 413 nm.

`COc1ccc(-c2cnc(/C=C/c3ccccc3)o2)cc1OC` registered an absorption maximum (in ClCCl) of 350 nm.

For the compound `CCN(CC)c1cc2oc(=O)cc(C)c2cc1C`, the absorption maximum (in CCO) is 442 nm.

On to `CCCCCCC(CCCCCC)N1C(=O)c2cccc3c(-c4ccc([Si](C)(C)C)cc4)ccc(c23)C1=O`, for which the absorption maximum reads like this: (in CCCCCC) 343.4 nm; (in CCCCCCCCCCCCCC) 344.4 nm; (in CCCCCCCCCCCO) 355 nm; (in CCCCO) 357.6 nm; (in CN(C)C=O) 356 nm; (in Cc1ccccc1) 353.4 nm. For the setting “in ClC(Cl)Cl”, this compound came in with an absorption maximum of 356 nm.

Where the note is “in Cc1ccccc1”, `COc1ccc(C2=[N+]3C(=Nc4c(-c5cc(OC)c(OC)c(OC)c5Br)c(-c5ccc(C(C)(C)C)cc5)c(-c5ccc(OC)cc5)n4[B-]3(F)F)C(c3cc(OC)c(OC)c(OC)c3Br)=C2c2ccc(C(C)(C)C)cc2)cc1` came in with an absorption maximum of 706 nm.

For `CN(C)c1ccc(/C=C/C=N/N=C/c2ccc3ccc4cccc5ccc2c3c45)cc1`, the absorption maximum reads like this: (in CC#N) 426 nm; (in CC(C)(C)O) 420 nm; (in CC(C)=O) 418 nm; (in CC(C)O) 432 nm; (in CCCCO) 433 nm; (in CO) 434 nm. For the same compound, the absorption maximum is, setting by setting: (in CS(C)=O) 438 nm; (in ClC(Cl)Cl) 433 nm; (in ClCCl) 430 nm; (in O) 420 nm.

Regarding `N#CC(C#N)=C(/C=C/c1cc2c3c(c1)CCCN3CCC2)c1ccc2c3c(cccc13)CC2`, the absorption maximum reads like this: (in C1CCOC1) 527 nm; (in CC#N) 540 nm; (in CC(C)=O) 535 nm; (in CCOC(C)=O) 523 nm; (in CN(C)C=O) 550 nm; (in CO) 541 nm. For the same compound, the absorption maximum is recorded as 526 nm (in Cc1ccccc1) and 538 nm (in ClC(Cl)Cl).

With `Cc1ccccc1-c1c2cccc3c(-c4ccc(C(C)(C)C)cc4)cc4c(-c5ccccc5C)c5cccc6c(-c7ccc(C(C)(C)C)cc7)cc1c(c65)c4c32`, where the note is “in ClCCl”, the absorption maximum was determined as 447 nm.

On to `O=c1oc2c(ccc3ccccc32)nc1-c1ccccc1`, for which the absorption maximum was found to be 396 nm (in CC#N), 398 nm (in CCCCCC), 396 nm (in CO) and 396 nm (in c1ccccc1).

Take `N#Cc1c(-n2c3ccc(Br)cc3c3cc(Br)ccc32)c(C#N)c(-n2c3ccc(Br)cc3c3cc(Br)ccc32)c(-n2c3ccc(Br)cc3c3cc(Br)ccc32)c1-n1c2ccc(Br)cc2c2cc(Br)ccc21`: the absorption maximum (in Cc1ccccc1) is 374 nm.

`COc1c2ccccc2c(OC)c2c1c1c(C)ccc(OC)c1n2C`: the absorption maximum by setting is: (in C1CCCCC1) 417 nm; (in CC#N) 416 nm; (in CO) 414 nm; (in ClCCl) 418 nm.

For the compound `COCCC1=Cc2nc1ccc1[nH]c(c3nc(ccc4[nH]c2cc4CCOC)C(CCOC)=C3)c2c(C(=O)OC)c(C(=O)O)ccc12`, the absorption maximum (in Cc1ccccc1) turned out to be 636 nm.

Compound `[NH3+]C(Cc1ccc(O)c(O)c1)C(=O)[O-]` (centres undefined) displayed an absorption maximum (in O) of 278 nm.

Turning to `CC[n+]1c(C=C2C(=O)C(C=C3N(C)c4ccccc4C3(C)C)=C2[O-])sc2ccccc21`, the absorption maximum is recorded as 635 nm (in CO), 649 nm (in ClC(Cl)Cl) and 650 nm (in ClCCl).

`CCC(CC)COC1=CC2=C3c4cc(OCC(CC)CC)c(-c5cccs5)n4[B-](F)(F)[n+]4c3n(c3cc(C(C)(C)C)ccc34)[B-](F)(F)[N+]2=C1c1cccs1`: the absorption maximum is 792 nm (in C1CCOC1) and 791 nm (in ClCCl).

`CC(C)(C)NC(=O)c1ccc(C(=O)NC(C)(C)C)c2c1c1c3ccccc3c3ccccc3c1c1c3ccccc3c3ccccc3c21` had an absorption maximum (in ClCCl) of 388 nm.

As to `CN(C)c1ccc(/C=C/c2cc3ccccc3c[n+]2C)cc1`, the absorption maximum was 425 nm (in CC(C)=O) and 441 nm (in ClCCl).

`CCOC(=O)c1sc2nc(C)c(CC)c(C#N)c2c1N` yielded an absorption maximum (in c1ccccc1) of 412 nm.

`Cc1nc2c(ccc3ccc(N(C)C)cc32)oc1=O` had an absorption maximum (in c1ccccc1) of 426 nm.

Consider `CC[n+]1c(C=C2C(=O)C(C=C3Sc4cc(Cl)ccc4N3C)=C2[O-])[se]c2ccccc21`, for which the absorption maximum amounted to 658 nm (in CO), 677 nm (in ClC(Cl)Cl) and 678 nm (in ClCCl).

Compound `COc1cc(/C=C/CO)ccc1O` had an absorption maximum (in O) of 295 nm.

With `CCC1=C(C)C2=C(c3c4ccccc4c(C)c4ccccc34)c3c(C)c(CC)c(C)n3[B-](F)(F)[N+]2=C1C`, the absorption maximum by setting is: (in CC#N) 527 nm; (in CCCCCC) 529 nm; (in CCO) 528 nm; (in CN(C)C=O) 530 nm; (in Cc1ccccc1) 532 nm; (in ClCCl) 531 nm.

For the compound `c1ccc2[nH]c(-c3ccc(-c4ccc(-c5ccc(-c6nc7ccccc7[nH]6)cc5)cc4)cc3)nc2c1`, where the note is “in CN(C)C=O”, the absorption maximum is 349 nm.

As to `S=c1[nH]nc(-c2ccc(/C=C/c3ccc(-c4n[nH]c(=S)o4)cc3)cc2)o1`, the absorption maximum (in CN(C)C=O) was determined as 334 nm.

On to `C[Si](C)(C)C#Cc1ccc(C#C[Si](C)(C)C)c2ccccc12`, for which the absorption maximum (in C1CCCCC1) was determined as 347 nm.

As for `COc1ccc(C2=c3sc(-c4ccc(OC)cc4)c(-c4ccc(OC)cc4)c3=[N+]3C2=Nc2c(-c4ccc(OC)cc4)c4sc(-c5ccc(OC)cc5)c(-c5ccc(OC)cc5)c4n2[B-]3(F)F)cc1`, the absorption maximum (in ClC(Cl)Cl) turned out to be 784 nm.

In turn, `COc1ccc(C2=C(c3ccc(OC)cc3)C(C)(C)c3ccc4ccccc4c32)cc1` gave an absorption maximum (in C1CCCCC1) of 336 nm.

Regarding `CCCCCCCCc1ccc(-n2c3c4ccccc4nnc3c3c2c2nnc4ccccc4c2n3-c2ccc(CCCCCCCC)cc2)cc1`, for the setting “in Cc1ccccc1”, the absorption maximum amounted to 316 nm.

Regarding `CCn1c2ccccc2c2cc(C#Cc3cc(C#Cc4ccc5c(c4)c4ccccc4n5CC)nc(OC)n3)ccc21`, the absorption maximum turned out to be 388 nm (in C1CCOC1); 384 nm (in CCOC(C)=O); 392 nm (in CN(C)C=O); 389 nm (in Cc1ccccc1); 390 nm (in ClCCl).

For the compound `c1ccc(N(c2ccccc2)c2ccc(-c3ccc4c(c3)C3(c5cc(-c6ccc(N(c7ccccc7)c7ccccc7)cc6)ccc5S4)c4ccccc4-c4ccccc43)cc2)cc1`, the absorption maximum (in ClCCl) is reported as 356 nm.

The compound `CN(C)c1ccc(/C=C/c2cnc(C#Cc3ccc(C#N)cc3)o2)cc1` showed an absorption maximum (in ClCCl) of 390 nm.

`Cc1nc2cc3c4c(cccc4c2o1)C(=O)OC3=O` gave an absorption maximum (in CCO) of 362 nm.

Turning to `Cc1cc(C)c(B(c2ccc(-c3ccc(-c4nc5c6ccccc6c6ccccc6c5[nH]4)cc3)cc2)c2c(C)cc(C)cc2C)c(C)c1`, the absorption maximum reads like this: (in C1CCOC1) 375 nm; (in CC(C)=O) 373 nm; (in CS(C)=O) 378 nm; (in Cc1ccccc1) 374 nm; (in ClCCl) 371 nm.

For `CCOC(=O)CCCn1c(C(=O)OC)c(C)c2c(=O)n3c(cc21)C(CC)=C(C)C3=O`, the absorption maximum is 396 nm (in C1CCCCC1); 397 nm (in CO); 397 nm (in CS(C)=O); 398 nm (in ClC(Cl)Cl); 397 nm (in c1ccccc1).

Compound `CCC1(CC)c2cc(/C=C/c3ccc(N(c4ccccc4)c4ccccc4)cc3)ccc2-c2ccc(/C=C/c3ccc(N(c4ccccc4)c4ccccc4)cc3)cc21` gave an absorption maximum (in Cc1ccccc1) of 412 nm.

Where the note is “in CCO”, `O=c1c2cc(F)c(N3CCCCC3)cc2oc2cc(N3CCCCC3)c(F)cc12` yielded an absorption maximum of 369 nm.

Where the note is “in Cc1ccccc1”, `CC(C)[Si](C#Cc1c2ccc(C(C)(C)C)cc2c(C#Cc2c3ccc(C(C)(C)C)cc3c(C#C[Si](C(C)C)(C(C)C)C(C)C)c3ccc(C(C)(C)C)cc23)c2ccc(C(C)(C)C)cc12)(C(C)C)C(C)C` yielded an absorption maximum of 523 nm.

For `COC(=O)c1[nH]c(-c2ccc(Br)cc2)c2nnc3ccc(OC)cc3c12`, for the setting “in ClCCl”, the absorption maximum was determined as 395 nm.

In the case of `CC(C)(C)NC(=O)c1ccc(-c2ccccc2)c2ccc3c4ccccc4c4ccccc4c3c12`, the absorption maximum (in ClCCl) came to 336 nm.
